In publication PMC5064435, “Inhibition of endoplasmic reticulum glucosidases is required for in vitro and in vivo dengue antiviral activity by the iminosugar UV-4” (Antiviral Research, 2016):
Structures can show the parent of a compound that is named as a salt.

What was measured:
[1] = target: T1, α-glucosidase I (human MDMΦs) (Homo sapiens, UniProt Q13724); test: free oligosaccharide (Glc3Man5GlcNAc1) accumulation in human MDMΦs; format: cell-based; details: […] h treatment of uninfected cells
T1 construct: gene MOGS; endogenous enzyme in primary human monocyte-derived macrophages
T1 sequence (Q13724 1-837): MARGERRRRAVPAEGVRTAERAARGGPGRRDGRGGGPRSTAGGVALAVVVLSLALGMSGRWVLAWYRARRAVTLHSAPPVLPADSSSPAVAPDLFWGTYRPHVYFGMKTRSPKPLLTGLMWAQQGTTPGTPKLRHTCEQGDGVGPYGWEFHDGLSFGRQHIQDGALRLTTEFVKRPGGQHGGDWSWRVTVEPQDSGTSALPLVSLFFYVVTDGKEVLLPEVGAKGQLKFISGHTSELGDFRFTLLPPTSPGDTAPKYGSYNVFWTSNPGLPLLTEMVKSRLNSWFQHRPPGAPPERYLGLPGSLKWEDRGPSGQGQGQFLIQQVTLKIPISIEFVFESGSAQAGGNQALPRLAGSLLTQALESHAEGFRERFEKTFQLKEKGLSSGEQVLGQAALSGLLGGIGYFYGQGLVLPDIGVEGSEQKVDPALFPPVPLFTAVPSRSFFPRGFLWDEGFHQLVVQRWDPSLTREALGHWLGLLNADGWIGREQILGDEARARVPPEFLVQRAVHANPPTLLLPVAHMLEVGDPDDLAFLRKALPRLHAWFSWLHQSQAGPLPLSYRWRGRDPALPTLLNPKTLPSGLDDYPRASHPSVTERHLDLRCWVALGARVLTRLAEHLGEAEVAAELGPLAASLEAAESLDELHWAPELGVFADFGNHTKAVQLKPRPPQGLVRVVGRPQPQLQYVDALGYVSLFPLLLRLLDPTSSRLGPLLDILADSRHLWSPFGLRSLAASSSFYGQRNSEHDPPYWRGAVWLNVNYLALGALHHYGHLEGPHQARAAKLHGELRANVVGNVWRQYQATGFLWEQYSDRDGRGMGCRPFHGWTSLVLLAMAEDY

[2] = target: T2, ceramide glucosyltransferase (HL60 glucosyltransferase) (Homo sapiens, UniProt Q16739); test: enzyme inhibition assay, enzyme isolated from HL60 cells; format: biochemical; details: read-out: IC50 ^a / UV-4B
T2 construct: gene UGCG; native enzyme isolated from human promyelocytic HL60 cells
T2 sequence (Q16739 1-394): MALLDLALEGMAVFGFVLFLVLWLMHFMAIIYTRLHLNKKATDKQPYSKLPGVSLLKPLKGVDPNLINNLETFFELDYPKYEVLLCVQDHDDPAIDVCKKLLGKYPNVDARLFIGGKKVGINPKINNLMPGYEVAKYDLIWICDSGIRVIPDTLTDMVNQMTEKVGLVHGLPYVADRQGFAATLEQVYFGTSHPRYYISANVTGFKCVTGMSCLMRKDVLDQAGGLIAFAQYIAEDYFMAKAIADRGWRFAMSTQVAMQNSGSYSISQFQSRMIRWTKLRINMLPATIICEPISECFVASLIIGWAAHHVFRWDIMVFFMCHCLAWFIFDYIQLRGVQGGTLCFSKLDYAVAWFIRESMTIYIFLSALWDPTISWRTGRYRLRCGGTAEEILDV
Source text: enzyme inhibition assay, enzyme isolated from HL60 cells on ceramide glucosyltransferase (HL60 glucosyltransferase)

[3] = target: T3, Mouse ER α-glucosidase I (Mus musculus, UniProt Q80UM7); test: enzyme inhibition assay, purified enzyme; format: biochemical; details: read-out: IC50 ^a / UV-4B
T3 construct: gene Mogs
T3 sequence (Q80UM7 1-834): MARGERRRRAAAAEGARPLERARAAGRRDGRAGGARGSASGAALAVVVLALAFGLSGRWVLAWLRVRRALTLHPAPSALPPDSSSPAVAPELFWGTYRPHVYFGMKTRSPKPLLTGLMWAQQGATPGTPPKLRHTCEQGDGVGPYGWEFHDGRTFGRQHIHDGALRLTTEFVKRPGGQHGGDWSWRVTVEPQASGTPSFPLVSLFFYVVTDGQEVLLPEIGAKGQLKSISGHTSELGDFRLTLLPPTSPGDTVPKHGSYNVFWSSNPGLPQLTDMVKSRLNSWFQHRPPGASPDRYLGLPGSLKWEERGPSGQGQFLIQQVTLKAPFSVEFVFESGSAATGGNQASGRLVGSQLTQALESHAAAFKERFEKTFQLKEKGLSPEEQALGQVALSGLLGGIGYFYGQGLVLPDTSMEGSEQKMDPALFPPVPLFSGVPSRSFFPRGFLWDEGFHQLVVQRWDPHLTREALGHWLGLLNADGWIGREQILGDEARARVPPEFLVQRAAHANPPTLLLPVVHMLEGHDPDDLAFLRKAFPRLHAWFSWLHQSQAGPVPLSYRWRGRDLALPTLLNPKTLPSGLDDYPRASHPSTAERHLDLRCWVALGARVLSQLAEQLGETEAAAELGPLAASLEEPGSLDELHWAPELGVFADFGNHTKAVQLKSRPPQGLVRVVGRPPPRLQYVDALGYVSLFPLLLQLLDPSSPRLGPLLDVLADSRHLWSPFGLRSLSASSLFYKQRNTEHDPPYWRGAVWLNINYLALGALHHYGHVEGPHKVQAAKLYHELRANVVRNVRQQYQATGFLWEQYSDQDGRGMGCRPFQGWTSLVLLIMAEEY
Source text: enzyme inhibition assay, purified enzyme on Mouse ER α-glucosidase I

- IC50 [2]: 390 nM
- IC50 [3]: 160 nM
Compound: COCCCCCCCCCN1C[C@H](O)[C@@H](O)[C@H](O)[C@H]1CO [UV-4B, N-(9′-methoxynonyl)-1-deoxynojirimycin hydrochloride]
- free oligosaccharide (Glc3Man5GlcNAc1) accumulation in human MDMΦs [1]: UV-4B led to accumulation of FOS representative of inhibition of both α-glucosidases
